Experimental data reported in ChEMBL document CHEMBL1201862, “PubChem BioAssay data set” (2004).
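48-hour exposure; five concentrations; linearly interpolated endpoints. Abbreviation: GI50, concentration required for 50% inhibition of growth.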 The source made the active and inactive calls. Rule as the data show it: active = GI50 up to about 1.1 µM and inactive = higher.

Experiments:
Assay in all cases: NCI anticancer screen, dose series, 48 h
[1] = tested on: CAKI-1
[2] = tested on: K562
[3] = tested on: SN12C
[4] = tested on: HCT-15
[5] = tested on: HOP-62
[6] = tested on: SNB-75
[7] = tested on: HL-60
[8] = tested on: COLO 205
[9] = tested on: M14
[10] = tested on: Malme-3M
[11] = tested on: SK-MEL-2
[12] = tested on: RXF 393
[13] = tested on: SF-295
[14] = tested on: NCI-H522
[15] = tested on: BT-549
[16] = tested on: LOX IMVI
[17] = tested on: NCI-H460
[18] = tested on: KM12
[19] = tested on: SW-620
[20] = tested on: TK-10
[21] = tested on: SK-OV-3
[22] = tested on: SR
[23] = tested on: PC-3
[24] = tested on: T47D
[25] = tested on: MDA-MB-231
[26] = tested on: CCRF-CEM
[27] = tested on: OVCAR-4
[28] = tested on: IGROV-1
[29] = tested on: UO-31
[30] = tested on: NCI-H23
[31] = tested on: MCF7
[32] = tested on: A498
[33] = tested on: NCI-H226
[34] = tested on: OVCAR-5
[35] = tested on: SF-268
[36] = tested on: ACHN
[37] = tested on: MOLT-4
[38] = tested on: RPMI-8226
[39] = tested on: NCI/ADR-RES
[40] = tested on: EKVX
[41] = tested on: U-251
[42] = tested on: SK-MEL-28
[43] = tested on: OVCAR-8
[44] = tested on: A549
[45] = tested on: HCT-116
[46] = tested on: UACC-62
[47] = tested on: HOP-92
[48] = tested on: OVCAR-3
[49] = tested on: MDA-N
[50] = tested on: MDA-MB-435
[51] = tested on: SK-MEL-5
[52] = tested on: 786-0
[53] = tested on: UACC-257
[54] = tested on: Hs-578T
[55] = tested on: HT-29
[56] = tested on: DU-145
[57] = tested on: SNB-19

For `O=[N+]([O-])c1cccc(CSc2nc(O)c3nc[nH]c3n2)c1`, the GI50 [1] was > 100 µM (inactive), the GI50 [2] was 78.2 µM (inactive) and the GI50 [3] was > 100 µM (inactive). The GI50 [4] was > 100 µM, the GI50 [5] was > 100 µM (inactive) and the GI50 [6] was > 100 µM (inactive). The GI50 [7] was > 100 µM (inactive), the GI50 [8] was > 100 µM (inactive) and the GI50 [9] was > 100 µM (inactive). For the same compound, the GI50 [10] was > 100 µM (inactive), the GI50 [11] was > 100 µM (inactive) and the GI50 [12] was > 100 µM (inactive). For the same compound, the GI50 [13] was > 100 µM (inactive), the GI50 [14] was 76.6 µM (inactive) and the GI50 [15] was > 100 µM (inactive). For the same compound, the GI50 [16] was > 100 µM (inactive), the GI50 [17] was > 100 µM (inactive) and the GI50 [18] was > 100 µM (inactive). The GI50 [19] was > 100 µM (inactive), the GI50 [20] was > 100 µM (inactive) and the GI50 [21] was > 100 µM (inactive). The GI50 [22] was > 100 µM (inactive), the GI50 [23] was > 100 µM (inactive) and the GI50 [24] was > 100 µM (inactive). For the same compound, the GI50 [25] was > 100 µM (inactive), the GI50 [26] was 9.46 µM (inactive) and the GI50 [27] was > 100 µM (inactive). The GI50 [28] was > 100 µM (inactive), the GI50 [29] was > 100 µM (inactive) and the GI50 [30] was > 100 µM (inactive). The GI50 [31] was > 100 µM (inactive), the GI50 [32] was > 100 µM (inactive) and the GI50 [33] was 79.8 µM (inactive). For the same compound, the GI50 [34] was > 100 µM (inactive), the GI50 [35] was > 100 µM (inactive) and the GI50 [36] was > 100 µM (inactive). For the same compound, the GI50 [37] was > 100 µM (inactive), the GI50 [38] was > 100 µM (inactive) and the GI50 [39] was > 100 µM (inactive). For the same compound, the GI50 [40] was > 100 µM (inactive), the GI50 [41] was > 100 µM (inactive) and the GI50 [42] was > 100 µM (inactive). The GI50 [43] was > 100 µM (inactive), the GI50 [44] was > 100 µM (inactive) and the GI50 [45] was > 100 µM (inactive). The GI50 [46] was 50.1 µM (inactive), the GI50 [47] was > 100 µM (inactive) and the GI50 [48] was > 100 µM (inactive). The GI50 [49] was > 100 µM (inactive), the GI50 [50] was > 100 µM (inactive) and the GI50 [51] was > 100 µM (inactive). For the same compound, the GI50 [52] was > 100 µM (inactive), the GI50 [53] was > 100 µM (inactive) and the GI50 [54] was 87.1 µM (inactive). For the same compound, the GI50 [55] was > 100 µM (inactive), the GI50 [56] was > 100 µM (inactive) and the GI50 [57] was > 100 µM (inactive).
